Results taken from paper PMC10029155, “Harnessing protein sensing ability of electrochemical biosensors via a controlled peptide receptor–electrode interface” (Journal of Nanobiotechnology, 2023).

Legend:
[1] = biological target: T1, cathepsin B (Homo sapiens, UniProt P07858); experiment: SWV electrochemical binding to cathepsin B (relative current change, binding constant); details: for relative binding affinity to cathepsin B (specificity): 125 nM protein, peptide 50 μM or phage ~10^12 PFU/mL immobilized
T1 construct: Cathepsin B proteins, purified from human liver (~ 27.5 kDa, > 95% purity); purchased ENZO (NY, USA); host or cells: purified from human liver
Experimental: A conventional three-electrode system including an Au working electrode (diameter: 5 mm, surface area: 19.6 mm^2), a Pt counter electrode, and an Ag/AgCl reference electrode, was used for the electrochemical measurements. The EIS, CV, and SWV measurements were conducted in the presence of 2.5 mM ferro/ferricyanide in 1 M KNO3 using a CHI 660E instrument (CH Instruments, Austin, TX, USA) at 25 °C. The EIS measurements were carried out by applying a 10 mV signal with a frequency ranging from 0.01 Hz to 100 kHz. The CV tests were performed between − 0.6 and 0.6 V (scan range) at a scan rate of 100 mVs^−1. The SWV tests were carried out in the potential range of − 0.4 to 0.6 V with an amplitude of 5 mV, frequency of 10 Hz, and a scan interval of 4 mV. The relative current change (ΔI%) was obtained by considering that the peak current decreased after the immobilization of the peptides and/or phages and cathepsin B protein interaction using the following equation:1 ΔI%=I0-I/I0×100 where I0 refers to phage-on-a-sensor, peptide-on-a-sensor, or peptide-on-a-AuNPs/MXene sensor and/or peptide oxidation current before cathepsin B introduction, and I refers to Au-protein oxidation current after cathepsin B introduction.

[2] = system: cathepsin S (CTSS); experiment: SWV specificity test against CTSS; format: binding; details: 125 nM protein
Experimental: (§1) A conventional three-electrode system including an Au working electrode (diameter: 5 mm, surface area: 19.6 mm^2), a Pt counter electrode, and an Ag/AgCl reference electrode, was used for the electrochemical measurements. The EIS, CV, and SWV measurements were conducted in the presence of 2.5 mM ferro/ferricyanide in 1 M KNO3 using a CHI 660E instrument (CH Instruments, Austin, TX, USA) at 25 °C. The EIS measurements were carried out by applying a 10 mV signal with a frequency ranging from 0.01 Hz to 100 kHz. The CV tests were performed between − 0.6 and 0.6 V (scan range) at a scan rate of 100 mVs^−1. […]
(§2) The electrochemical response of the phage sensor for cathepsin B detection was evaluated by the specificity analysis of the developed phage. […] The relative binding affinity of the phage-on-a-sensor with different phage concentrations was measured. […] The binding constants of the developed phage sensor and the relative current change (ΔI%) with different cathepsin B concentrations were measured by SWV.
(§3) To select potential high-affinity peptides from the phage clones, the five synthetic peptides were immobilized on the Au electrode via streptavidin–biotin and MUA-EDC/NHS coupling methods. Each preparation step of the peptide sensor was recorded using CV, EIS, and SWV (Additional file 1: Fig. S3a–c), and the relative binding affinities for cathepsin B were measured by SWV. […]

[3] = system: BSA; experiment: SWV specificity test against BSA (control); format: binding; details: 125 nM protein, negative control protein
Experimental: as §1, §2, §3

[4] = system: cathepsin L1 (CTSL1); experiment: SWV specificity test against CTSL1; format: binding; details: 125 nM protein
Experimental: as §1, §2, §3

[5] = biological target: T1, cathepsin B; experiment: ELISA binding of peptide-displaying phage clones to immobilized biotinylated cathepsin B; details: 405 nm
Experimental: A 96 well streptavidin-coated microplate was washed three times with PBS, and the biotinylated cathepsin B was immobilized on it with mild shaking at 25 °C for 1 h. The unbound proteins were removed and blocked with a blocking buffer (5% BSA in NaHCO3) at 25 °C for 1 h. The wells were washed six times with 0.1% PBST, and 100 µL of the amplified phages (10^11 PFU/mL), i.e., the capture receptors, were added and incubated for 1 h at 25 °C. After washing six times with PBST again, the HRP-conjugated anti-M13 monoclonal antibodies (1:5000 dilution with blocking buffer), i.e., the detecting antibodies, were added and incubated at 25 °C for 1 h. The residual solution was discarded, and the microplate was washed again with the same buffer. Freshly prepared HRP substrate (ABTS) was added, and the absorbance was measured at 405 nm using a Multiskan FC microplate photometer (Thermo Scientific, Waltham, MA, USA).
The binding affinities of the selected phage clones for the immobilized cathepsin B were tested by ELISA. For these experiments, 250 nM of cathepsin B or the same amount of BSA as a negative control was immobilized on a well, followed by 10^11 PFU/mL of phage addition. The relative binding affinity of each phage was detected using HRP-conjugated M13 antibodies. […] The CTSB 4-1 clone was the only phage with a high binding affinity to cathepsin B, motivating further characterization of its binding interaction to confirm its specific binding to cathepsin B with increasing cathepsin B concentration (Fig. 2c).

Sequence	relative binding affinity to cathepsin B (specificity) [1]	relative binding affinity to CTSS (specificity) [2]	relative binding affinity to BSA (specificity) [3]	relative binding affinity to CTSL1 (specificity) [4]	relative binding affinity for cathepsin B (ELISA) ([5]; 250 nM cathepsin B immobilized, 10^11 PFU/mL phage, HRP-conjugated anti-M13 antibody, ABTS, 25 °C, 1 h, triplicate)	dose response of binding with cathepsin B concentration ([5]; cathepsin B 3.906 to 250 nM, ELISA)	SC50 ([5]; cathepsin B 6.25 to 250 nM, ELISA, printed in picture Fig. 2c) [nM]	relative binding affinity for all the tested proteins, comparison between peptides ([1]; 125 nM cathepsin B, CTSS, CTSL1 or BSA, peptide 50 μM)
HRHRRHRHRKHHK - biotin [CTSB BP4]	much lower binding affinity for cathepsin B than for CTSB BP3	non-specific binding affinity	non-specific binding affinity	non-specific binding affinity	–	–	–	–
WDMWPSMDWKAE [CTSB 4-1, M13 phage clone displaying …, identified in four rounds of the biopanning]	–	–	–	–	strong cathepsin B binding	dose-dependent binding affinity with increasing cathepsin B concentration	44.27	–
WDMWPSMDWKAEK - biotin [CTSB BP1]	did not bind to cathepsin B	–	–	–	–	–	–	comparable to those of CTSB BP2 and CTSB BP5
